Results on 22 compounds are retold here after ChEMBL document CHEMBL1201862, “PubChem BioAssay data set” (2004).

Structures are written as SMILES.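 Test compounds were applied to cells in 96-well plates for 48 hours at 5 doses. The concentration for 50% growth inhibition is given as GI50.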 Activity calls are given as the source filed them. Rule as the data show it: active = GI50 up to about 1.1 µM and inactive = higher. Some results are limits rather than exact numbers.

Among the test systems are DMS-114; HOP-18; KM-20L2; LXFL 529; M19-MEL; RXF 631; SNB-78; XF498; DMS-273.
Holding throughout (experiment): inhibition of tumour cell growth, NCI panel, 48 h

For the compound `O=C(Nc1ccc(Cl)cc1Cl)C(=O)C(C(=O)c1ccncc1)C1OC(=O)c2ccccc21` (stereo not drawn), the GI50 with DMS-114, in the assay on HOP-18, in the assay with KM-20L2, with LXFL 529, with M19-MEL and in the assay on RXF 631 was > 100 µM (inactive) throughout. Moreover, the GI50 in the assay on SNB-78 and with XF498 was > 100 µM (inactive) each time.

Turning to `Nc1ccc(C(=O)NN2C(=O)C(Cl)C2c2cccc([N+](=O)[O-])c2)cc1` (stereo not drawn), the GI50 in the assay with DMS-114 was 18.7 µM (inactive); in the assay on DMS-273 it was 16 µM (inactive); in the assay with KM-20L2, 25.3 µM (inactive); in the assay with LXFL 529, 20 µM (inactive); in the assay on M19-MEL, 19.8 µM (inactive); in the assay on SNB-78, 63.2 µM (inactive). Also, the GI50 in the assay with XF498 is 13.2 µM (inactive).

As to `CCCCCCCCCCCCN(O)C(=O)c1ccccc1`, the GI50 was 62.1 µM (inactive) with HOP-18; 36.2 µM (inactive) in the assay with KM-20L2; 30.5 µM (inactive) in the assay on LXFL 529; 37.8 µM (inactive) in the assay on M19-MEL; 21.6 µM (inactive) in the assay on XF498.

Consider `CCCN(CCC)CCc1cc(C(C)=O)n(S(=O)(=O)c2ccc(C)cc2)c1`, for which the GI50 in the assay with DMS-114, in the assay with DMS-273, in the assay on HOP-18, in the assay with LXFL 529, with M19-MEL and with SNB-78 was > 100 µM (inactive) throughout.

Turning to `Cc1c2cc[n+]([O-])cc2c(C)c2c1[nH]c1ccccc12`, the GI50 with DMS-114 was 11.2 µM (inactive); with DMS-273, 3.82 µM (inactive); in the assay with HOP-18, 45 µM (inactive); in the assay on KM-20L2 it was 4.06 µM (inactive); in the assay on LXFL 529, 4.65 µM (inactive); with M19-MEL it was 13.6 µM (inactive). Also, the GI50 with RXF 631 is 0.879 µM (active); in the assay with SNB-78, 7.71 µM (inactive); in the assay on XF498, 9.98 µM (inactive).

Regarding `COc1c(C(C)C)cc2c3c1OC(=O)[C@@]31CCCC(C)(C)C1CC2` (stereo partly drawn), the GI50 in the assay on DMS-273 was 23.4 µM (inactive); with KM-20L2, 30.4 µM (inactive); in the assay with LXFL 529, 16.6 µM (inactive); with M19-MEL it was 23.6 µM (inactive); with SNB-78, 23.3 µM (inactive).

On to `N#C/C(=C/Sc1ccccc1)C(=O)O`, for which the GI50 is 15.1 µM (inactive) in the assay on DMS-114; 22.2 µM (inactive) with DMS-273; > 100 µM (inactive) in the assay with HOP-18; 30.1 µM (inactive) in the assay on KM-20L2; 21.2 µM (inactive) with LXFL 529; 23.3 µM (inactive) in the assay on M19-MEL. Moreover, the GI50 in the assay on SNB-78 is 18 µM (inactive); with XF498, 41.8 µM (inactive).

Take `Clc1ccc(C2=NN(c3ccccc3)C3c4cc(Br)ccc4OCC23)cc1` (stereo not drawn): the GI50 was 86.1 µM (inactive) in the assay with DMS-114; > 100 µM (inactive) with DMS-273; > 100 µM (inactive) with HOP-18; > 100 µM (inactive) in the assay with KM-20L2; 72.1 µM (inactive) in the assay with LXFL 529; > 100 µM (inactive) in the assay with M19-MEL. Further, the GI50 with RXF 631 is > 100 µM (inactive); in the assay with SNB-78, > 100 µM (inactive); with XF498 it was 66.2 µM (inactive).

On to `N#CC(N)(C(=O)CCC(=O)Nc1cccc(Cl)c1)c1ccc(Cl)cc1` (stereo not drawn), for which the GI50 in the assay on DMS-114, in the assay on DMS-273, in the assay with HOP-18, in the assay on KM-20L2, in the assay on LXFL 529 and with M19-MEL was > 100 µM (inactive) each time. The GI50 in the assay with SNB-78 and in the assay on XF498 was > 100 µM (inactive) in each case.

On to `O=S1(=O)NN=C(NCc2ccc(Cl)c(Cl)c2)c2ccccc21`, for which the GI50 with DMS-114 is > 100 µM (inactive); with DMS-273, > 100 µM (inactive); in the assay on HOP-18, > 100 µM (inactive); in the assay on KM-20L2 it was > 100 µM (inactive); in the assay with LXFL 529 it was 42.2 µM (inactive); in the assay with M19-MEL, > 100 µM (inactive). Moreover, the GI50 in the assay on SNB-78 was 97.5 µM (inactive).

Consider `CC(C)(C)c1cc2ccc(C(N)=O)cc2c(=O)[nH]1`, for which the GI50 in the assay with DMS-114, with DMS-273, with HOP-18, in the assay on KM-20L2, with LXFL 529 and in the assay on M19-MEL was > 100 µM (inactive) each time. Further, the GI50 in the assay on RXF 631 and in the assay with SNB-78 was > 100 µM (inactive) in each case.

Regarding `OCC1OC(n2cnc3c2NC=NC[C@H]3O)CC1O` (stereo partly drawn), the GI50 in the assay with DMS-114 is 426 µM (inactive); in the assay with DMS-273, 489 µM (inactive); in the assay on KM-20L2, > 500 µM (inactive); with LXFL 529, > 500 µM (inactive); in the assay on M19-MEL, 354 µM (inactive); in the assay on SNB-78, 483 µM (inactive). Also, the GI50 in the assay with XF498 is 442 µM (inactive).

As to `CC1=NN(c2ccccc2)C(=O)C1=C1SCCCS1`, the GI50 in the assay with DMS-114 was 20.8 µM (inactive); with DMS-273, 32.7 µM (inactive); in the assay on HOP-18, 20.8 µM (inactive); in the assay with KM-20L2, 31.4 µM (inactive); in the assay on LXFL 529 it was 34.6 µM (inactive); in the assay with M19-MEL, 32.1 µM (inactive). Further, the GI50 in the assay with SNB-78 was 66.2 µM (inactive); in the assay with XF498, 16.6 µM (inactive).

As to `O=C1C(Cl)C(c2ccc([N+](=O)[O-])cc2)N1n1cnc2ccccc2c1=O` (stereo not drawn), the GI50 in the assay with DMS-114 was 20.2 µM (inactive); in the assay on DMS-273 it was 34.5 µM (inactive); in the assay on HOP-18, 40.6 µM (inactive); in the assay on KM-20L2 it was > 100 µM (inactive); with LXFL 529 it was 22.7 µM (inactive); with SNB-78, 24.1 µM (inactive). Further, in the assay on XF498, the GI50 was 64.9 µM (inactive).

Regarding `O=c1c2cccc3cccc(c4n1CCN=4)c32`, the GI50 in the assay on DMS-114 is > 100 µM (inactive); in the assay with DMS-273, 97.7 µM (inactive); in the assay with HOP-18, > 100 µM (inactive); with KM-20L2, > 100 µM (inactive); in the assay on LXFL 529 it was > 100 µM (inactive); with M19-MEL it was > 100 µM (inactive). In addition, the GI50 in the assay with SNB-78 and in the assay with XF498 was > 100 µM (inactive) in each case.

For the compound `CCCCCCC(=O)OC[n+]1ccc2c(C)c3[nH]c4ccc(OC)cc4c3c(C)c2c1`, the GI50 in the assay on DMS-114 was 0.522 µM (active); in the assay with DMS-273 it was 0.029 µM (active); with KM-20L2 it was 2.42 µM (inactive); in the assay on LXFL 529 it was 0.133 µM (active); in the assay on M19-MEL, 0.953 µM (active); in the assay on RXF 631 it was 0.455 µM (active). The GI50 in the assay on SNB-78 was 1.06 µM (active).

Consider `C[C@]12CCC3[C@@H](CCC45OC4C(=O)CC[C@]35C)C1Cc1cnn(-c3ccc(F)cc3)c1N2` (stereo partly drawn), for which the GI50 in the assay with DMS-114 is 19.4 µM (inactive); with DMS-273, 18.8 µM (inactive); with HOP-18, 37 µM (inactive); in the assay on KM-20L2 it was 22.6 µM (inactive); in the assay with LXFL 529, 32.8 µM (inactive); in the assay with M19-MEL it was 34.3 µM (inactive). Besides, the GI50 in the assay on SNB-78 was 25.6 µM (inactive); in the assay with XF498, 31.8 µM (inactive).

With `COC(=O)C(C(=O)C(=O)Nc1cccc(OC)c1)c1cnc2ccccc2n1` (stereo not drawn), the GI50 in the assay with DMS-114, in the assay on DMS-273, in the assay on HOP-18, in the assay with KM-20L2, with LXFL 529 and in the assay on RXF 631 was > 100 µM (inactive) throughout. In addition, the GI50 in the assay with SNB-78 and in the assay with XF498 was > 100 µM (inactive) throughout.

Consider `COC(=O)/C(Cl)=C1/CC1COCc1ccccc1` (stereo not drawn), for which the GI50 with DMS-114 was 28.8 µM (inactive); with DMS-273, 20.7 µM (inactive); in the assay with KM-20L2, 41.4 µM (inactive); in the assay with LXFL 529 it was 17.1 µM (inactive); with M19-MEL, 33.3 µM (inactive); in the assay on SNB-78 it was 45.9 µM (inactive). In the assay with XF498, the GI50 was 26.4 µM (inactive).

As for `CC(=O)Nc1ccc(C2CC(c3ccc([N+](=O)[O-])cc3)=Nc3ccccc3[S+]2[O-])cc1` (stereo not drawn), the GI50 in the assay on DMS-114 is 21.2 µM (inactive); with DMS-273 it was 13.6 µM (inactive); in the assay with HOP-18, 27.2 µM (inactive); in the assay with KM-20L2, 21.6 µM (inactive); in the assay on LXFL 529, 16.7 µM (inactive); in the assay on M19-MEL it was 15.2 µM (inactive). Further, the results for the GI50 in the assay with RXF 631 and in the assay with XF498 were > 10 µM (inactive) and 24.2 µM (inactive), respectively.

For `CCC12CCCC(=O)N1C(CO)C(c1ccccc1)O2` (stereo not drawn), the GI50 in the assay with DMS-114 is 38 µM (inactive); in the assay with DMS-273, > 100 µM (inactive); with HOP-18, > 100 µM (inactive); in the assay on KM-20L2 it was > 100 µM (inactive); in the assay with M19-MEL, > 100 µM (inactive); in the assay on SNB-78, > 100 µM (inactive). For the same compound, the GI50 in the assay with XF498 is > 100 µM (inactive).

Take `COc1ccc(CC2=NCCc3cc(OC)c(OC)cc32)cc1Br`: the GI50 in the assay on DMS-114 is 10.2 µM (inactive); in the assay with DMS-273, 12.7 µM (inactive); with HOP-18, > 100 µM (inactive); in the assay with KM-20L2 it was 4.11 µM (inactive); in the assay with LXFL 529 it was 7.36 µM (inactive); in the assay on M19-MEL, 27.5 µM (inactive). Further, the GI50 with SNB-78 is 58.1 µM (inactive); in the assay with XF498, 22.8 µM (inactive).
